Consider 17 molecules from PubChem BioAssay (NCI).

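A five-concentration, 48-hour dose response in 96-well plates underlies each endpoint, interpolated linearly between surrounding concentrations. GI50 = concentration required for 50% inhibition of growth. The concentration for full growth arrest is given as TGI.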

Common to all, as to test: NCI-60 cell line screen, 48 h
The subject of experiment [1] is OVCAR-5 ovarian.
For experiment [2], the system named is A549 NSCLC.
In experiment [3] the test system is HOP-62 NSCLC.
For experiment [4], the system named is RXF 393 renal.
The test system of experiment [5] is UACC-257 melanoma.
The test system of experiment [6] is SNB-75 CNS.
The subject of experiment [7] is SF-295 CNS.
The subject of experiment [8] is SK-MEL-28 melanoma.
For experiment [9], the system named is NCI-H460 lung.
The test system of experiment [10] is HCC-2998 colon.

Consider `O=C(/C=N/O)Nc1cc(Cl)c(Cl)cc1Cl`, for which the TGI in experiment [1] was over 100 µM; in experiment [2], over 100 µM; in [3], over 100 µM; in experiment [4] it was 95.3 µM; in experiment [5] it was 87.4 µM; in experiment [6] it was 66.6 µM. Moreover, the TGI is 87.6 µM in [7], over 100 µM in experiment [8], over 100 µM in [9] and over 100 µM in experiment [10].
For the molecule `OC(COc1ccc(F)cc1)Cn1cnc2c(Cl)ncnc21` (stereo not given), the GI50 in experiment [1] is over 100 µM; in [2], over 100 µM; in experiment [3], over 100 µM; in [4], 1.78 µM; in [5] it was 46.8 µM; in experiment [6], over 100 µM. The GI50 was over 100 µM in [7], over 100 µM in [8], over 100 µM in [9] and 19.3 µM in experiment [10]. Besides, the TGI in [1] is over 100 µM; in [2], over 100 µM; in [3] it was over 100 µM; in experiment [4], 44.4 µM; in experiment [5], over 100 µM; in experiment [6], over 100 µM. Further, the TGI was over 100 µM in [7], over 100 µM in [8], over 100 µM in [9] and 42.3 µM in experiment [10].
Regarding `CS(=O)(=O)Nc1cccc(-c2cc(-c3ccccc3Cl)c(C#N)c(N)n2)c1`, the GI50 in [1] was 3.22 µM; in experiment [2], 0.655 µM; in experiment [3], 0.558 µM; in experiment [4], 0.328 µM; in [5] it was 0.5 µM; in experiment [6], 0.239 µM. For the same molecule, the GI50 in experiment [7] was 0.411 µM; in experiment [8], 1.22 µM; in experiment [9] it was 0.417 µM; in [10], 1.36 µM. The TGI came to 19.9 µM in experiment [1]; 16.6 µM in [2]; 16.6 µM in experiment [3]; 2.27 µM in [4]; 21.4 µM in experiment [5]; 2.44 µM in experiment [6]. Moreover, the TGI in [7] was determined as 12.9 µM; in experiment [8], 19.9 µM; in experiment [9], 11.5 µM; in [10] it was 8.52 µM.
As for `CCN(CC)c1ccc2c(c1)Oc1nc(N)c(C#N)c(N)c1C2Sc1ccc(OC)cc1` (stereo not given), the GI50 in experiment [1] was 2.04 µM; in [2], 1.99 µM; in experiment [3], 1.88 µM; in experiment [4], 1.88 µM; in experiment [5], 1.98 µM; in [6] it was 1.51 µM. Moreover, the GI50 in experiment [7] is 1.93 µM; in experiment [8] it was 1.85 µM; in experiment [9], 1.94 µM; in experiment [10], 1.81 µM. Besides, the TGI amounted to 4.6 µM in experiment [1]; 3.59 µM in [2]; 3.43 µM in experiment [3]; 3.35 µM in experiment [4]; 3.48 µM in experiment [5]; 2.89 µM in [6]. The TGI in experiment [7] was 3.6 µM; in [8], 3.37 µM; in [9], 3.81 µM; in experiment [10] it was 3.43 µM.
As for `N#CSc1c[nH]c2ccc(/C=C/C(=O)/C=C(/C=C/c3ccc4[nH]cc(SC#N)c4c3)OB(F)F)cc12`, the GI50 in experiment [1] is 2.24 µM; in [2], 3.31 µM; in experiment [3], 3.86 µM; in experiment [4] it was 0.24 µM; in [5] it was 2.82 µM; in experiment [6] it was 2.38 µM. The GI50 was 3.47 µM in experiment [7], 0.498 µM in [8], 0.763 µM in [9] and 3.72 µM in [10]. Further, the TGI in [1] was determined as 8.68 µM; in experiment [2] it was 17.6 µM; in experiment [3], 38.9 µM; in [4] it was 0.852 µM; in experiment [5], 33.6 µM; in experiment [6], 11.1 µM. Further, the TGI in experiment [7] turned out to be 14.4 µM; in [8] it was 2.29 µM; in [9], 2.37 µM; in [10] it was 19.7 µM.
For the molecule `CC(=O)N1c2ccccc2NC2=C(C(=O)N(Cc3ccccc3)C2(C)C)C1c1ccco1` (stereo not given), the GI50 was 0.44 µM in [1]; 1.03 µM in experiment [2]; 1.25 µM in experiment [3]; 0.599 µM in experiment [4]; over 25 µM in [5]; 0.841 µM in experiment [6]. The GI50 was 0.766 µM in experiment [7], over 25 µM in experiment [8], 0.145 µM in [9] and 0.608 µM in experiment [10]. Also, the TGI in experiment [1] was over 25 µM; in experiment [2] it was over 25 µM; in experiment [3], over 25 µM; in [4], 1.87 µM; in [5], over 25 µM; in experiment [6], over 5.78 µM. In addition, the TGI in [7] is over 6.83 µM; in [8], over 25 µM; in experiment [9], over 21.2 µM; in experiment [10], over 7.95 µM.
On to `O=C(O)c1ccc(S(=O)(=O)Nc2ccc3oc4c(c3c2)C(=O)CCC4)cc1`, for which the GI50 in experiment [1], in [2], in [3], in experiment [4], in [5] and in [6] was over 100 µM throughout. Moreover, the GI50 in [7], in experiment [8], in experiment [9] and in experiment [10] was over 100 µM throughout. The TGI in [1], in experiment [2], in [3], in experiment [4], in experiment [5] and in experiment [6] was over 100 µM throughout. Further, the TGI in experiment [7], in experiment [8], in experiment [9] and in experiment [10] was over 100 µM each time.
Take `C[C@@H](CN1CC(=O)NC(=O)C1)N1CC(=O)NC(=O)C1`: the TGI in experiment [1] was 1190 µM; in experiment [2], 692 µM; in [3], 328 µM; in [4] it was 1140 µM; in [5], 2390 µM; in experiment [6] it was 929 µM. Moreover, the TGI worked out at 779 µM in experiment [7], 1750 µM in experiment [8], 553 µM in experiment [9] and 1540 µM in experiment [10].
Regarding `O=C(O)c1cc2ccccc2c(N=Nc2cc(C(F)(F)F)ccc2Cl)c1O`, the TGI in experiment [1] is over 100 µM; in [2] it was over 100 µM; in experiment [3], over 100 µM; in experiment [4], over 100 µM; in experiment [5], over 100 µM; in experiment [6] it was 0.0907 µM. Further, the TGI in [7], in [8], in experiment [9] and in experiment [10] was over 100 µM in each case.
Consider `Nc1nc2cc3ccc(C4CC(O)C(CO)O4)cc3cc2c(=O)[nH]1` (stereo not given), for which the GI50 is over 100 µM in experiment [1]; over 100 µM in [2]; over 100 µM in [3]; over 100 µM in [4]; over 100 µM in [5]; 49.6 µM in experiment [6]. The GI50 in [7], in experiment [8], in experiment [9] and in experiment [10] was over 100 µM in each case. Further, the TGI in experiment [1], in experiment [2], in experiment [3], in [4], in experiment [5] and in experiment [6] was over 100 µM each time. In addition, the TGI in experiment [7], in experiment [8], in experiment [9] and in experiment [10] was over 100 µM throughout.
As for `CN(C)CCSc1cccc(-c2cc(-c3cccc(SCCN(C)C)c3)nc(SCCN(C)C)n2)c1`, the TGI in experiment [1] came to 19.5 µM; in experiment [2] it was 3.47 µM; in [3] it was 30.2 µM; in experiment [4], 2.8 µM; in experiment [5], 3.02 µM; in experiment [6] it was 12.1 µM. Besides, the TGI in experiment [7] was determined as 3.52 µM; in [8], 3.4 µM; in experiment [9] it was 3.46 µM; in [10] it was 7.76 µM.
Consider `O=C(Nc1cccc(Cc2cccc(NC(=O)c3ccccc3)c2)c1)c1ccccc1`, for which the TGI was over 100 µM in experiment [1]; over 100 µM in [2]; 60.9 µM in experiment [3]; 46.6 µM in experiment [4]; over 100 µM in experiment [5]; 27.5 µM in experiment [6]. The TGI in experiment [7] was 70.2 µM; in experiment [8], over 100 µM; in [9] it was over 100 µM; in experiment [10], over 100 µM.
As for `O=C(O)CCC/C=C\C[C@H]1C=CC(=O)/C1=C/C[C@@H](O)CCc1cccc(C(F)(F)F)c1`, the GI50 in experiment [1] was 4.15 µM; in experiment [2], 3.2 µM; in experiment [3] it was 2.93 µM; in experiment [4], 2 µM; in [5], 2.36 µM; in [6], 9.41 µM. Also, the GI50 in [7] is 2.5 µM; in experiment [8], 1.52 µM; in [9], 2.23 µM; in experiment [10], 1.87 µM. The TGI in experiment [1] was determined as 11.8 µM; in [2] it was 9.76 µM; in experiment [3] it was 7.27 µM; in experiment [4], 3.61 µM; in [5], 7.38 µM; in [6], 22.2 µM. For the same molecule, the TGI in experiment [7] came out at 6.09 µM; in [8], 4.4 µM; in experiment [9], 4.96 µM; in [10], 3.5 µM.
As for `Cc1nc(-c2ccccc2)cc2c1c(=O)oc1ccccc12`, the TGI in experiment [1], in [2], in experiment [3], in experiment [4], in experiment [5] and in experiment [6] was over 100 µM in each case. Also, the TGI in experiment [7], in experiment [8], in experiment [9] and in [10] was over 100 µM throughout.
For the molecule `CC(=O)O[C@H]1CCC2[C@@H]3CCC4=C(O)C(=O)C(C#N)C[C@]4(C)C3CC[C@@]21C` (stereo not given in full), the TGI in [1] is over 100 µM; in [2] it was over 100 µM; in experiment [3], over 100 µM; in experiment [4] it was over 100 µM; in [5] it was over 100 µM; in experiment [6], 72.1 µM. For the same molecule, the TGI in [7], in [8], in experiment [9] and in experiment [10] was over 100 µM in each case.
In the case of `CCCCCCCCCc1cc[n+](CC(=O)c2ccc([N+](=O)[O-])cc2)cc1`, the GI50 in experiment [1] was 1.16 µM; in experiment [2] it was 1.64 µM; in [3], 1.05 µM; in [4] it was 0.754 µM; in experiment [5] it was 1.47 µM; in [6], 1.12 µM. Further, the GI50 is 1.44 µM in experiment [7], 1.11 µM in experiment [8], 1.53 µM in experiment [9] and 0.514 µM in [10]. Further, the TGI in [1] stood at 2.52 µM; in [2], 3.13 µM; in experiment [3], 2.39 µM; in experiment [4] it was 2.15 µM; in experiment [5] it was 3.2 µM; in [6], 2.36 µM. In addition, the TGI worked out at 2.79 µM in experiment [7], 2.39 µM in experiment [8], 3.08 µM in experiment [9] and 1.93 µM in experiment [10].
For `Cc1cc(O)c(C2=NN(c3ccc(S(N)(=O)=O)cc3)C(c3ccc(N(C)C)cc3)C2)c(C)c1Cl` (stereo not given), the GI50 in [1] was 19.4 µM; in [2], 14.7 µM; in experiment [3], 18.6 µM; in experiment [4], 24.5 µM; in [5] it was 26.3 µM; in [6] it was 17 µM. For the same molecule, the GI50 in experiment [7] was 19.2 µM; in experiment [8], 19.4 µM; in experiment [9], 12.2 µM; in experiment [10] it was 14.8 µM. Besides, the TGI in experiment [1] came out at 38.1 µM; in [2], 43.5 µM; in experiment [3] it was 34.8 µM; in [4] it was 59.1 µM; in experiment [5], 63.1 µM; in experiment [6] it was 42.2 µM. Moreover, the TGI in [7] is 44.4 µM; in experiment [8], 35.6 µM; in [9], 27.4 µM; in [10], 30.9 µM.
